Assay in all cases: PTP IC50 assay, pNPP or FDP as substrate
Holding throughout (format): biochemical

The target of one experiment is T1, PTP SHP2 (Homo sapiens, UniProt Q06124).
T1 construct: The catalytic domain was amplified using the following oligonucleotides; made in house; host or cells: Sf-9 insect cells (pFastBac-G2T)
T1 sequence (Q06124 247-517 limits assumed): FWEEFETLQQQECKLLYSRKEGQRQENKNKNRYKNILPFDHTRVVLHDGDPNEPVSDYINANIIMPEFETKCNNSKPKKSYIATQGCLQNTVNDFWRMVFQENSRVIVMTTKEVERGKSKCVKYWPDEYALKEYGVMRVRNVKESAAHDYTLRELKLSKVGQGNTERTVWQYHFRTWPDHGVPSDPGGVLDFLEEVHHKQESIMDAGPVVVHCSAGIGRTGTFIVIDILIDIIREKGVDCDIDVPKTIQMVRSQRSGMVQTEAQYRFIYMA
As for the experimental part: (§1) The following in vitro assay procedure is preferred to determine the level of activity and effect of the different compounds of the present invention on one or more of the PTPs. Similar assays can be designed along the same lines for any PTP using techniques well known in the art.
(§2) The catalytic assays described herein are performed in a 96-well format. The general procedure begins with the determination of PTP optimal pH using a three-component buffer system that minimizes ionic strength variations across a wide range of buffer pH. Next, the Michaelis-Menten constant, or Km, is determined for each specific substrate-PTP system. This Km value is subsequently used as the substrate reaction concentration for compound screening. Finally, the test PTP is exposed to varying concentrations of compound for fifteen minutes and allowed to react with substrate for ten minutes. The results are plotted as percent inhibition versus compound concentration and the IC50 interpolated from the plot.
(§3) All assays were performed using pNPP or FDP as substrate. The optimum pH was determined for each PTP used.
(§4) PTPase activity was assayed at 25° C. in a 100-μl reaction mixture containing an appropriate concentration of pNPP or FDP as substrate. The reaction was initiated by addition of the PTP and quenched after 10 min by addition of 50 μl of IN NaOH. The non-enzymatic hydrolysis of the substrate was corrected by measuring the control without the addition of the enzyme. The amount of p-nitrophenol produced was determined from the absorbance at 410 nm. To determine the kinetic parameter, Km, the initial velocities were measured at various substrate concentrations and the data were fitted to the Michaelis equation where velocity=(Vmax*[S])/(Km+[S]), and [S]=substrate reaction concentration.
(§5) The effect of the compounds on PTP was evaluated at 25° C. using pNPP or FDP as substrate. PTP was pre-incubated for fifteen minutes with various concentrations of compound. Substrate was then added at a fixed concentration (usually equal to the Km previously calculated). After 10 minutes, NaOH was added to stop the reaction. The hydrolysis of pNPP was followed at 410 nm on the Biotek Powerwave 200 microplate scanning spectrophotometer. The percent inhibition was calculated as follows: Percent Inhibition=[(control signal−compound signal)/control signal] ×100%. The IC50 was then determined by interpolation of a percent inhibition versus compound concentration plot.
(§6) Plasmids designed for bacterial GST-PTP fusion protein expression were derived by insertion of PCR-generated human PTP fragments into pGEX vectors (Pharmacia Biotech). Several of these constructs were then used to subclone phosphatases into pFastBac-1for expression in Sf-9 insect cells. Oligonucleotides used for the initial amplification of PTP genes are shown below. The cDNAs were prepared using the Gilbo BRL superscript preamplification system on RNAs purchased from Clontech.
SHP-2 cDNA was used as described earlier (Vogel W., et al.,1993, Science, 259:1611-4). The catalytic domain was amplified using the following oligonucleotides 5′oligo: 5′-[…]-3′ (SEQ ID NO: 2) 3′oligo: 5′-[…]-3′ (SEQ ID NO: 3) and subsequently subcloned into BamH1-Xba-1 sites. It was then ligated into pfas Bac-G2T BamH1-Xba-1 sites.

Another experiment has as its target T2, PTP 1B (Homo sapiens, UniProt P18031).
T2 construct: made in house; host or cells: Sf-9 insect cells (pFastBac-G2T)
T2 sequence (P18031 1-435): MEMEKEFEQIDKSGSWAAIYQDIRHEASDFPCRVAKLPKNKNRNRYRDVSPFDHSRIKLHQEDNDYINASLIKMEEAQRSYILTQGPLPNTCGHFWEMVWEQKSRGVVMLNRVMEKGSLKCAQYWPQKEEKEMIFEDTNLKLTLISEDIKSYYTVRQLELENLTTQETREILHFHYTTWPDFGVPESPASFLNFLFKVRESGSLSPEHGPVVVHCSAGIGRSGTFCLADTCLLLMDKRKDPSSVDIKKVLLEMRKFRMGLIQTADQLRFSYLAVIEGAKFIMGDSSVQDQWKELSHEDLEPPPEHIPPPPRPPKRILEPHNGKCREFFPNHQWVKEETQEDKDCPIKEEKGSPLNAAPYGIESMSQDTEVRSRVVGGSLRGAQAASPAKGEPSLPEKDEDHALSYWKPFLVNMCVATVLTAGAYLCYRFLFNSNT
The procedure: as §1, §2, §3, §4, §5, §6
The PTP1b cDNA was amplified from human placenta single strand cDNA (Clontech RNA) using the following oligonucleotides: 5′oligo: 5′-[…] (SEQ ID NO: 4) 3′oligo: 5′-[…] (SEQ ID NO: 5) It was subsequently ligated into pFasBac G2TBamH1Xba-1 sites.

The next experiment addresses T3, PTP SIGMA (Homo sapiens, UniProt Q13332).
T3 construct: made in house; host or cells: E. coli BL-21 (pGEX 6P-1)
T3 sequence (Q13332 1320-1660 limits assumed): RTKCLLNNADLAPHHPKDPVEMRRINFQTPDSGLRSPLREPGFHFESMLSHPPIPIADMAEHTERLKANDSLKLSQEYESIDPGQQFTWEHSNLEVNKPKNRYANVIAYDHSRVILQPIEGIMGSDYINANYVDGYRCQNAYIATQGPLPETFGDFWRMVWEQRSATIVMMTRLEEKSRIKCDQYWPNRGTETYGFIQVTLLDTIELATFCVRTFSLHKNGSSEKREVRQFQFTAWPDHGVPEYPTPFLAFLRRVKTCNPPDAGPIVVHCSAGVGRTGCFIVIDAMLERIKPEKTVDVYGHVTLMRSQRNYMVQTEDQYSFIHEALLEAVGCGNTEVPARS
The procedure: as §1, §2, §3, §4, §5, §6
The PTP Sigma cDNA was amplified from human brain single strand cDNA (Clontech RNA) using the following oligonucleotides: 5′oligo: 5′-[…]-3′ (SEQ ID NO: 12) 3′oligo: 5′-[…]-3′ (SEQ ID NO: 13) and subsequently ligated into pGex 6P-1 Eco RI/Xho I sites.

Setting [1] is: pNPP or FDP as substrate, 25° C., read-out: PTP IC50 SHP2.
[2] abbreviates: pNPP or FDP as substrate, 25° C., read-out: PTP IC50 1B.
The mark [3] stands for this setting: pNPP or FDP as substrate, 25° C., read-out: PTP IC50 Sigma.
Where [4] appears, read: comparison of R groups, read-out: IC50 SHP2.
[5] abbreviates: comparison of R groups, read-out: IC50 1B.
Where [6] appears, read: comparison of R groups, read-out: IC50 Sigma.

Read-outs that look alike come from different tables or passages of the source.

Usually IC50 stands for the concentration at which inhibition is half-maximal. For `CCOC(=O)COc1ccc(S(=O)(=O)c2ccc(Oc3ccc(S(=O)(=O)C(F)(F)F)cc3[N+](=O)[O-])cc2)cc1` [Example 17, {4-[4-(2-Nitro-4-trifluoromethanesulfonyl-phenoxy)-benzenesulfonyl]-phenoxy}-acetic acid ethyl ester], the IC50 at PTP SHP2 (setting [1]), on PTP 1B (setting [2]) and at PTP SIGMA (setting [3]) was more than 100 µM throughout.
Turning to `O=[N+]([O-])c1cc(S(=O)(=O)C(F)(F)F)ccc1OC1CCC(Oc2ccc(S(=O)(=O)C(F)(F)F)cc2[N+](=O)[O-])C1` (mixture of isomers) [Example 12, 1,3-Bis-(2-nitro-4-trifluoromethanesulfonyl-phenoxy)-cyclopentane], the values for the IC50 on PTP SHP2 (setting [1]), at PTP 1B (setting [2]) and at PTP SIGMA (setting [3]) were 79.8 µM, more than 100 µM and 91.7 µM, respectively.
In the same order, the values of `O=S(=O)(Nc1ccc(CCc2ccc(NS(=O)(=O)C(F)(F)F)cc2)cc1)C(F)(F)F` [Example 66, 1,2-Bis(4-trifluoromethylsulfonamidophenyl)ethane] are 36.6 µM, 60.4 µM and more than 100 µM.
In the same order, the values of `O=S(=O)(Nc1ccc(Oc2cccc(Oc3ccc(NS(=O)(=O)C(F)(F)F)cc3)c2)cc1)C(F)(F)F` [Example 74, 1,3-Bis(4-trifluoromethylsulfonamidophenoxy)benzene] are 2.8 µM, 7.7 µM and 7.6 µM.
In the case of `NC(=O)c1cc(Oc2ccc(S(=O)(=O)C(F)(F)F)cc2[N+](=O)[O-])cc(Oc2ccc(S(=O)(=O)C(F)(F)F)cc2[N+](=O)[O-])c1` [Example 30, 3,5-Bis-(2-nitro-4-trifluoromethanesulfonyl-phenoxy)-benzamide], the IC50 is 52.8 µM on PTP SHP2 (PTP IC50 SHP2, pNPP or FDP as substrate, 25° C.); more than 100 µM on PTP 1B (PTP IC50 1B, pNPP or FDP as substrate, 25° C.); 26.5 µM on PTP SIGMA (PTP IC50 Sigma, pNPP or FDP as substrate, 25° C.).
Regarding `Nc1ccc(Oc2ccc(Oc3ccc(N)cc3)cc2)cc1` [NH2], the 50% inhibitory concentration (IC50) on PTP SHP2 (setting [4]), at PTP 1B (setting [5]) and at PTP SIGMA (setting [6]) was more than 100 µM in each case.
In the case of `CCOC(=O)c1cc(Oc2ccc(S(=O)(=O)C(F)(F)F)cc2[N+](=O)[O-])c(C(=O)OCC)cc1O` [Example 26, 2-Hydroxy-5-(2-nitro-4-trifluoromethanesulfonyl-phenoxy)-terephthalic acid diethyl ester], the IC50 on PTP SHP2 (setting [1]) was more than 100 µM; at PTP 1B (setting [2]), more than 100 µM; on PTP SIGMA (setting [3]) it was 69 µM.
For `O=[N+]([O-])c1cc(S(=O)(=O)C(F)(F)F)ccc1SSc1ccc(S(=O)(=O)C(F)(F)F)cc1[N+](=O)[O-]` [Example 8, Bis-(2-nitro-4-trifluoromethylsulfonylphenyl) disulfide], the results for the IC50 on PTP SHP2 (setting [1]), at PTP 1B (setting [2]) and at PTP SIGMA (setting [3]) were 37 µM, 46.8 µM and 27.7 µM, respectively.
In the same order, the values of `Cc1cc(NS(=O)(=O)C(F)(F)F)ccc1CCc1ccc(NS(=O)(=O)C(F)(F)F)cc1C` [Example 67, 1,2-Bis(2-methyl-4-trifluoromethylsulfonamidophenyl)ethane] are 17 µM, 35 µM and 41.4 µM.
In the case of `CS(=O)(=O)Nc1ccc(Oc2ccc(Oc3ccc(NS(C)(=O)=O)cc3)cc2)cc1` [CH3SO2NH—], the IC50 at PTP SHP2 (setting [4]) was found to be 33.6 µM; at PTP 1B (setting [5]) it was 51.9 µM; on PTP SIGMA (setting [6]), 22 µM.
In the case of `O=C(O)c1ccc(Oc2cccc(Oc3ccc(S(=O)(=O)C(F)(F)F)cc3)c2)cc1` [Example 18, 4-[3-(4-Trifluoromethanesulfonyl-phenoxy)-phenoxy]-benzoic acid], the IC50 at PTP SHP2 (setting [1]) came to 18.4 µM; at PTP 1B (setting [2]), 16.4 µM; on PTP SIGMA (setting [3]), 22.1 µM.
In the same order, the values of `O=C(O)Cc1ccc(CC(=O)Nc2cccc(S(=O)(=O)C(F)(F)F)c2)cc1` [Example 29, {4-[(3-Trifluoromethanesulfonyl-phenylcarbamoyl)-methyl]-phenyl}-acetic acid] are 37 µM, 35.4 µM and 60.6 µM.
